Measured values taken from patent publication US8383406B2, “Method for stimulating the proliferation of differentiated cells belonging to the chondrogenic lineage” (Maco Parma, priority 2007, dated 2013).
Where a SMILES comes first, the peptide text is derived from it.

How the values were obtained:
hybridoma cells = conditions: added to the culture medium; WO 01/46220; cited from earlier work
[1] = tested on: human osteoarthritic chondrocytes; test: Culturing of chondrocytes with or without glycylglycine, cell counting; type: cell-based
Procedure: The articular cartilage was sampled under sterile conditions from an osteoarthritic patient. The chondrocytes were isolated according to the methods of Green (1971) and Kuettner et al (1982), by enzymatic dissociation of the cartilage in Dulbecco's DMEM medium supplemented with a mixture of antibiotics and antimycotics (10 U/ml penicillin, 10 mg/ml streptomycin, 0.025 mg/ml amphotericin B), 2 mM L-glutamine and 10% foetal calf serum. The cartilage was cut up into small fragments and incubated (37° C.; 20 min) in the aforegoing DMEM medium containing 1 mg/ml of sheep testicular hyaluronidase. The fragments were next washed in PBS buffer (Phosphate Saline Buffer) with a pH of 7.4, and then incubated (60 min, at 37° C.) in the same buffer containing 0.25 g/100 mL trypsin. The fragments of cartilage previously washed with the PBS buffer with a pH of 7.4 were finally dissociated via incubation (15 hrs at 37° C.) in the DMEM medium containing 0.2% collagenase of Clostridium histolyticum and 10% foetal calf serum. The cells were collected by centrifugation (15 min, 3000 g), washed 2 times with the complete DMEM medium and cultured under the conditions hereinbelow. The chondrocytes were cultured on uncoated culture plates with polystyrene wells, at 37° C. for 1 to 7 days in a CO2 atmosphere (5%), in the absence or presence of 20 mM of glycylglycine, in a DMEM medium containing 10% foetal calf serum supplemented with a mixture of antibiotics and antimyotics (10 U/ml penicillin, 10 mg/ml streptomycin, 0.025 mg/ml amphotericin B) and 2 mM L-glutamine. With a view to subsequent cytometric analyses, the chondrocytes were detached by incubating for 3 minutes in a pH 7.4 PBS buffer solution of trypsin (0.25 g/100 ml) and EDTA (0.2 g/100 ml) kept at 37° C. After 3 washings with PBS buffer at pH 7.4, and after counting the cells using a Malassez chamber, the chondrocytes were subjected to various flow cytometry analyses described hereinbelow. FIGS. 1A and 1B show this large-scale production of the chondrocytes. […]

[2] = tested on: human osteoarthritic chondrocytes; test: Calcein-AM test, viability and cytotoxicity of the cells; type: cell-based; conditions: 20 mM glycylglycine; cultured for 7 days; FIG. 3 curve C vs B
Procedure: (§1) The analyses were carried out using an FACScan cytometer equipped with ProCellQuest software, under the following experimental conditions: cells in suspension in a PBS isotonic buffer at pH 7.4, having an osmolality of 320-330 mOsmol/kg, with the number of cells analysed being 10,000.
The viability of the chondrocytes and the toxicity of the peptide were studied using the method developed by Bratosin et al (2005) and based on measuring the cellular esterase activity by means of calcein-AM.
Principle—Calcein-AM is a non-fluorescent acetic ester of fluorescein which passively passes through the membranes of the viable cells and is transformed by the cytosolic esterases into fluorescent calcein, which provides an intense green signal at 530 nm and which is retained only by the cells having an intact plasma membrane. […]
Operating procedure—The chondrocytes (4×10^5) in suspension in 200 μl of PBS buffer at pH 7.4 are incubated (45 min at 37° C.) in darkness, in the presence of 5 μM calcein-AM. Next, 0.5 ml of PBS buffer at pH 7.4 is added to the suspension, which is immediately analysed by flow cytometry in the FL1 logarithmic mode (number of cells counted: 10,000).
The intensity of the fluorescence on a logarithmic scale is plotted on the x-axis and the relative number of cells is plotted on the y-axis.

chondrocytes = test: Proliferation rate of the cells, glycylglycine concentration kinetics; type: cell-based, human; conditions: for Number of cells obtained / Proliferation rate after 3 days: 76,000 cells cultured for three days; for Proliferation rate/culture medium without Gly-Gly: three days
Procedure: The chondrocytes were cultured on uncoated culture plates with polystyrene wells, at 37° C. for 1 to 7 days in a CO2 atmosphere (5%), in the absence or presence of 20 mM of glycylglycine, in a DMEM medium containing 10% foetal calf serum supplemented with a mixture of antibiotics and antimyotics (10 U/ml penicillin, 10 mg/ml streptomycin, 0.025 mg/ml amphotericin B) and 2 mM L-glutamine. With a view to subsequent cytometric analyses, the chondrocytes were detached by incubating for 3 minutes in a pH 7.4 PBS buffer solution of trypsin (0.25 g/100 ml) and EDTA (0.2 g/100 ml) kept at 37° C. After 3 washings with PBS buffer at pH 7.4, and after counting the cells using a Malassez chamber, the chondrocytes were subjected to various flow cytometry analyses described hereinbelow. The table below compiles the proliferation rates of cells cultured in the absence or presence of various concentrations of glycylglycine. In order to carry out this test, 76,000 cells were cultured for three days under the culture conditions presented below.

[3] = tested on: human osteoarthritic chondrocytes; test: Cell proliferation test, PKH-26 flow cytometry; type: cell-based; conditions: 20 mM glycylglycine; cultured for 3 days; FIG. 2 curve C vs B
Procedure: as §1
Principle—Prior to being cultured, the chondrocytes were irreversibly labelled with a vital fluorescent membrane intercalator derived from arcidine orange, the PKH-26, with a view to following cell proliferation via flow cytometry, which entails a decrease in the overall fluorescence of the cells.
Operating procedure—10^6 chondrocytes in suspension in 1 ml of the “diluent C” of the labelling kit are added to 1 ml of a […] solution of PKH-26 in the same diluent. After 4 min of incubation at ambient temperature, the reaction is stopped by the addition of 2 ml of foetal calf serum and then, after incubating for one minute, 4 ml of complete DMEM medium are added. After centrifuging (5 min, 2000 g at 25° C.), the resulting sediment is washed 3 times with 10 ml of complete DMEM medium. The cells are then cultured for 3 days under the conditions described in example 1.2, detached from the support thereof according to the above-described method, placed back in suspension in a PBS buffer at pH 7.4 and analyzed by flow cytometry in the logarithmic mode FL2.

SMILES: NCC(=O)O [glycine monomer, glycine, reference compound]
- proliferation of hybridoma cells in comparison with non-supplemented culture medium (hybridoma cells): only very slightly increases

SMILES: NCC(=O)NCC(=O)O [glycylglycine] (H-Gly-Gly-OH)
- proliferation rate in comparison with identical culture medium not supplemented with glycylglycine ([1]; 20 mM glycylglycine, DMEM medium, 7 days (FIGS. 1A and 1B), cell counting): multiplied by three
- proliferation rate in comparison with non-supplemented culture medium (summary statement) ([1]; glycylglycine added to the chondrocyte culture medium): multiplied by three, and even by seven
- dedifferentiation of the chondrocytes into fibroblasts ([1]; presence of glycylglycine in culture medium): blocks the dedifferentiation of the chondrocytes into fibroblasts
- toxicity to / viability of the chondrocytes (calcein-AM) [2]: not toxic to the chondrocytes and does not reduce the viability thereof
- proliferation of hybridoma cells in comparison with non-supplemented culture medium (hybridoma cells): only very slightly increases
- Number of cells obtained (chondrocytes; 20 mM Gly-Gly): 190,000 cells/ml
- Proliferation rate after 3 days (chondrocytes; 20 mM Gly-Gly): 150%
- Proliferation rate/culture medium without Gly-Gly (chondrocytes; 20 mM Gly-Gly): 2.11
- Number of cells obtained (chondrocytes; 50 mM Gly-Gly): 124,000 cells/ml
- Proliferation rate after 3 days (chondrocytes; 50 mM Gly-Gly): 63%
- Proliferation rate/culture medium without Gly-Gly (chondrocytes; 50 mM Gly-Gly): 1.38
- Number of cells obtained (chondrocytes; 100 mM Gly-Gly): 145,000 cells/ml
- Proliferation rate after 3 days (chondrocytes; 100 mM Gly-Gly): 91%
- Proliferation rate/culture medium without Gly-Gly (chondrocytes; 100 mM Gly-Gly): 1.61
- Number of cells obtained (chondrocytes; 200 mM Gly-Gly): 130,000 cells/ml
- Proliferation rate after 3 days (chondrocytes; 200 mM Gly-Gly): 71%
- Proliferation rate/culture medium without Gly-Gly (chondrocytes; 200 mM Gly-Gly): 1.44
- Number of cells obtained (chondrocytes; 500 mM Gly-Gly): 112,000 cells/ml
- Proliferation rate after 3 days (chondrocytes; 500 mM Gly-Gly): 47%
- Proliferation rate/culture medium without Gly-Gly (chondrocytes; 500 mM Gly-Gly): 1.24
- PKH-26 fluorescence / cell divisions compared with DMEM medium without glycylglycine [3]: the cell divisions were more numerous
